Laboratory results published in patent US8487090B2, “Water solution of 20(R)-ginsenoside Rg3 pharmaceutical composition and process thereof” (Dalian Fusheng Natural Medicine Development Co., Ltd., priority 2006, dated 2013).
Where two headings read alike, the source gives them in different places. Marks after values point to notes of the source that are not given here.

Experiments:
[1] = system: mouse liver cancer model (Heps); assay: Chemotherapy efficacy potentiation bioassay, tumor weight; assay type: in vivo
Method: Take strongly growing tumor cells under sterile condition, and prepare it into a cell suspension with a density of about 1˜2×10^7 cells/ml by a homogenate method. Inoculate 0.2 ml/mouse of the cell suspension subcutaneously into the armpit of the axillary host. Administrate the test drug next day according to the experimental design protocol. Euthanize each group animal after ˜3 weeks and remove the tumor from mice and weigh it. Calculate the tumor inhibition percentage by the following formula: Tumor inhibition percentage (%)=[(mean tumor weight of control group−mean tumor weight of treatment group)/mean tumor weight of control group]×100% 5.2.2 Caudal Vein Inoculation Model

[2] = Chemotherapy toxicity attenuation bioassay, blood counts; assay type: in vivo, mouse; conditions: Heps bearing mice
[3] = assay type: in vivo, C57BL/6 mouse; conditions: for Body Weight of Animals (g) End: Table 5
Method: (§1) Mouse B16 melanoma cells in logarithmic growth phase are taken out under sterile condition, and a cell suspension with a density of about 2.5×10^5 cells/ml is prepared. Inoculate 0.2 ml/mouse of cell suspension into caudal vein of C57BL/6 mouse. Administrate the test drug next day according to the experimental design protocol, euthanize the animal after ˜3 weeks and remove the lungs from mice and count the metastatic colony in the lungs of each mouse. Calculate the tumor inhibition percentage based on the group mean colony by the following formula: Tumor inhibition percentage (%)=[(mean colony of control group−mean colony of treatment group)/mean colony of control group]×100% 5.3 Antineoplastic Toxicity Attenuation Bioassay

[4] = system: Human Liver Cancer QGY Model; assay: Liver in situ inoculation model, survival; assay type: in vivo, nude mice; conditions: 30 mg/kg/d ip × 7 qd
Method: (§2) Take intravenous administration, twice per day. For mice models inoculated with human tumor models and cells, continue injection for seven days; for mice models inoculated with mouse tumor cells, continue injection for five days.
(§3) Positive controls: CTX, 30 mg/kg; MMC, 2 mg/kg; 5Fu, 30 mg/kg; intraperitoneal or intravenous injection, once daily, continues for 7 days.

Mouse Melanoma B16 Model = assay: Caudal vein inoculation model, lung metastatic colonies; assay type: in vivo, C57BL/6 mouse
Method: as §2, §3, §1

[5] = system: Human Intestine Cancer LOVO Model; assay: Efficacy bioassay on intestine cancer model, survival; assay type: in vivo, nude mice; conditions: 30 mg/kg/d ip × 7 qd
From the text: Human intestine cancer LOVO model, human stomach cancer MGC model, and human liver cancer QGY model, all tumor strains are in vivo subcultured for more than 2nd generation. Mouse melanoma B16 cell are subcultured and maintained by Pharmacology Department of Shanghai Institute of Pharmaceutical Industry.
as §2, §3

[6] = system: Human Gastric Cancer MGC Model; assay: Stomach in situ inoculation model, survival; assay type: in vivo, nude mice; conditions: 30 mg/kg/d ip × 7 qd
Method: as §2, §3
Take strongly growing in-vivo 2nd-generation MGC stomach cancer (cells) under sterile condition, and prepare it into a cell suspension with a density of 2×10^7 cells/ml by a homogenate method. Inject 0.05 ml of the cell suspension into the muscular layer of greater curvature of stomach of the nude mice via a surgery operation. Administrate the above mice with test drug next day according to the experimental design protocol, and calculate the life extension percentage of the tumor bearing host: Life extension percentage (%)=(mean survival days of treatment group/mean survival days of control)×100% 5.1.2 Liver In Situ Inoculation Model

[7] = cited from earlier work

With `CN(Cc1cnc2nc(N)nc(N)c2n1)c1ccc(C(=O)N[C@@H](CCC(=O)O)C(=O)O)cc1` [MTX] as the compound, how does the “Mean Tumor weight (g, mean ± SD)” value ([1]; 5 × 3 mg/kg/d) read?
The value was 0.27 ± 0.01 g.

And the “Tumor Inhibition Percentage (%)” value ([1]; 5 × 3 mg/kg/d)?
The value was 85.32%.

What about the “Hb” value ([2]; 5 × 3 mg/kg/d) of the same compound?
The value was 51 ± 1.0 g/L.

What about the “RBC 10^12/L” value ([2]; 5 × 3 mg/kg/d) of the same compound?
The value was 1.8 ± 0.1** 10^12/L.

And the “WBC (10^9/L)” value ([2]; 5 × 3 mg/kg/d)?
The value was 1.6 ± 0.1** 10^9/L.

For `O=P1(N(CCCl)CCCl)NCCCO1` (stereo not shown) [CTX, Cyclophosphamide], which “Body Weight of Animals (g) end” value ([3]; Table 2, 100 mg/kg/d ip × 2 qd) is on record?
The value was 19.8/22.6 g.

And the “Body Weight of Animals (g) End” value ([3]; 15 mg/kg/d ip × 7 qd)?
The value was 20.2/24.7 g.

And the “Body Weight of Animals (g) End” value ([3]; 30 mg/kg/d ip × 7 qd)?
The value was 19.9/22.6 g.

What about the “Life Extension Percentage T/C × %” value [4] of the same compound?
Its value is 157.53%.

And the “Mean Survival Time (d) mean ± SD” value [4]?
Its value is 34.50 ± 4.0 days.

What about the “Mean Tumor weight (g, mean ± SD)” value ([1]; 10 × 3 mg/kg/d) of the same compound?
Its value is 0.89 ± 0.29 g.

And the “Tumor Inhibition Percentage (%)” value ([1]; 10 × 3 mg/kg/d)?
The value was 56.52%.

What about the “Antimetastatic Percentage %” value (Mouse Melanoma B16 Model; Table 2, 100 mg/kg/d ip × 2 qd) of the same compound?
Its value is 92.41%.

What about the “Lung Colony (number) mean ± SD” value (Mouse Melanoma B16 Model; Table 2, 100 mg/kg/d ip × 2 qd) of the same compound?
Its value is 3.5 ± 3.7 number.

And the “Antimetastatic Percentage %” value (Mouse Melanoma B16 Model; Table 5, 15 mg/kg/d ip × 7 qd)?
The value was 48.11%.

And the “Lung Colony (number) mean ± SD” value (Mouse Melanoma B16 Model; Table 5, 15 mg/kg/d ip × 7 qd)?
The value was 26.1 ± 5.2 number.

What about the “Antimetastatic Percentage %” value (Mouse Melanoma B16 Model; Table 5, 30 mg/kg/d ip × 7 qd) of the same compound?
The value was 93.44%.

And the “Lung Colony (number) mean ± SD” value (Mouse Melanoma B16 Model; Table 5, 30 mg/kg/d ip × 7 qd)?
The value was 3.30 ± 2.6 number.

What about the “Life Extension Percentage T/C × %” value [5] of the same compound?
The value was 214.71%.

And the “Mean Survival Time (d) mean ± SD” value [5]?
Its value is 29.20 ± 4.8 days.

What about the “Life Extension Percentage T/C × %” value [6] of the same compound?
The value was 181.02%.

What about the “Mean Survival Time (d) mean ± SD” value [6] of the same compound?
The value was 41.20 ± 3.8 days.

And the “Hb” value ([2]; 10 × 3 mg/kg/d)?
The value was 82 ± 8.4 g/L.

What about the “RBC 10^12/L” value ([2]; 10 × 3 mg/kg/d) of the same compound?
The value was 2.8 ± 0.3** 10^12/L.

What about the “WBC (10^9/L)” value ([2]; 10 × 3 mg/kg/d) of the same compound?
The value was 3.2 ± 0.5** 10^9/L.

Which results are given for `N.N.[Cl][Pt][Cl]` [PDD]?
Mean Tumor weight (g, mean ± SD) ([1]; 1 × 3 mg/kg/d): 1.09 ± 0.30 g; Tumor Inhibition Percentage (%) ([1]; 1 × 3 mg/kg/d): 40.76%

What does the source list for `O=c1[nH]c(=O)n([C@H]2C[C@H](O)[C@@H](CO)O2)cc1F` [Example 5Fu, 5-Fluorodeoxyuridine]?
Mean Tumor weight (g, mean ± SD) ([1]; 25 × 3 mg/kg/d): 1.08 ± 0.34 g; Tumor Inhibition Percentage (%) ([1]; 25 × 3 mg/kg/d): 41.30%; Hb ([2]; 25 × 3 mg/kg/d): 90 ± 13.0 g/L; RBC 10^12/L ([2]; 25 × 3 mg/kg/d): 3.1 ± 0.4 10^12/L; WBC (10^9/L) ([2]; 25 × 3 mg/kg/d): 3.9 ± 0.3** 10^9/L

Which solubility in water [7] does the source give for `CC(C)=CCC[C@](C)(O)[C@H]1CC[C@]2(C)[C@@H]1[C@H](O)C[C@@H]1[C@@]3(C)CC[C@H](O[C@@H]4O[C@H](CO)[C@@H](O)[C@H](O)[C@H]4O[C@@H]4O[C@H](CO)[C@@H](O)[C@H](O)[C@H]4O)C(C)(C)[C@@H]3CC[C@]12C` [20(S)-ginsenoside Rg3] here?
Its solubility in water is “easily dissolvable in water”.

With `CC(C)=CCC[C@](C)(O)[C@H]1CC[C@]2(C)[C@@H]1[C@H](O)C[C@@H]1[C@@]3(C)CC[C@H](O[C@@H]4O[C@H](CO)[C@@H](O)[C@H](O)[C@H]4O[C@@H]4O[C@H](CO)[C@@H](O)[C@H](O)[C@H]4O)C(C)(C)[C@@H]3CC[C@]12C` [20(R)-ginsenoside Rg3] as the compound, how does the solubility in water [7] read?
Its solubility in water is “insoluble in water”.
